System: 137-62 tumors
Test: H3-P staining in 137-62 tumors after gemcitabine
Assay type: in vivo, rat
Procedure: Chem. 271:13197-201. 1996; Goto et al., J Biol Chem. 274:25543-9, 1999). The assay protocol was as follows. Tumors from rodents treated or untreated with Chk1 activator (in the present study, chemotherapy agent) and/or Chk1 inhibitor, were excised and paraffin embedded. The tumors are cut into 6 micron thick slices and mounted on glass slides. […] The slides are then heated to 95° C. in 10 mM sodium citrate for 10 minutes followed by a 20 minute cooling step. The slides are blocked for 30 minutes with Block buffer (20% normal human serum and 2% bovine serum albumin in phosphate buffered saline containing 0.05% Triton X-100 (PBST)). The anti-phospho histone H3 antibody (Upstate Biotech, Cat. #06-570) is diluted 1:200 in the Block buffer and incubated with the slides for one hour. The slides are washed 3 times 5 minutes in PBST. The secondary antibody, donkey anti-rabbit rhodamine (Jackson, cat #711-295-152) was added for 30 minutes. The slides were then washed twice in PBST and […] of […] DAPI (Sigma) in PBS is added and allowed to stain for 30 minutes. The slides were then washed two more times in PBST and mounted with Vectashield (Vector, cat # H-1400). Slides were viewed using fluorescence microscopy. The percentage of cells stained with H3-P antibody relative to total (DAPI stained) cells were quantified using Metamorph software (Universal Imaging Corporation, Version 4.6). […]

SMILES: Nc1ccn([C@@H]2O[C@H](CO)[C@@H](O)C2(F)F)c(=O)n1 [gemcitabine]
- time at which cells exited S phase arrest (137-62 cells, after gemcitabine): 24 h
- time of lowest H3-P staining (137-62 tumors treated with gemcitabine): 12 h
